Results: patent publication US6207648A, “Methods of using cytochrome P450 reductase for the enhancement of P450-based anti-cancer gene therapy” (priority 1998, dated 2001)
“Also recorded” adds a separate entry of the source. Like-named read-outs stand apart in the source and are kept apart here.

Columns and labels:
[1] = test system: 9L gliosarcoma cells (parental, CYP2B1+, CYP2B1+ RED+++); assay: In vitro growth inhibition assay, XTT (Example 1); conditions: for increase of cell survival ratio in CYP2B1+ RED+++ cells / rescue of CYP2B1+ and CYP2B1+ RED+++ cells from CPA toxicity: 1 mM CPA, AADP 0.5 mM or DPI 5 μM; for rescue of CYP2B1+ and CYP2B1+ RED+++ cells from CPA toxicity: FIG. 4
Method: Cells (1000/well) seeded in 96-well plates were treated with the indicated concentrations of CPA for 4 days. Corresponding controls received no drug treatment. Cell survival was determined by an XTT calorimetric assay. Data (mean for triplicate samples) were expressed as growth ratio (%), i. e., cell number (XTT activity) in drug treated plates as a percentage of the corresponding drug-free controls.
Cells (500/well) seeded in 96-well plates were treated with 1 mM cyclophosphamide in the absence or presence of the RED inhibitors AADP (0.5 mM) or DPI (5 μM). Corresponding controls received no drug treatment. Cell survival was determined by an XTT colorimetric assay. Data (mean for triplicate samples) are expressed as growth ratio (%), i.e., cell number (XTT activity) in drug treated plates as a percentage of the corresponding drug-free controls and are representative of 2-3 independent experiments. AADP and DPI were added to the cells 30 minutes prior to CPA treatment.
(B) Growth inhibition assay--Cells (1000/well) seeded in 96 well plates were treated with the indicated concentrations of CPA for 4-5 days. Corresponding controls received no drug treatment. Cell survival was determined by an XTT colorimetric assay, a cell proliferation assay that measures mitochondrial dehydrogenase activity of viable cells (Scudiero, D. A., et al., Cancer Res. 48:4827-4833 (1988)).

[2] = test system: 9L gliosarcoma cells (parental, CYP2B1+, CYP2B1+ RED+++); assay: In vitro colony formation cytotoxicity assay (Example 1); type: cell-based, rat; conditions: FIG. 3A
Description: FIGS. 2A and 2C depict the results of a colony formation cytotoxicity assay.
FIG. 3A depicts results from a colony formation cytotoxicity assay. […] The survival fraction is expressed as the number of colonies in each treatment group compared to the untreated control.
(§1) Corresponding controls received no drug treatment.

[3] = test system: rodent and human tumor xenograft models; conditions: cited from earlier work
[4] = test system: 9L/pBabe, 9L/2B6, 9L/hRED and 9L/2B6/hRED gliosarcoma cells
Method: Cells were seeded at 4000 cells/well in 48-well plates and treated with increasing concentrations of CPA for 4 days. Cell growth in comparison to drug-free controls was determined by crystal violet staining and is presented as mean±SD for n=3 replicates.
FIG. 21 is a graph depicting the cytotoxic effects of the bioreductive drug TPZ toward 9L/pBabe control cells and 9L cells transduced with retroviruses encoding human RED and/or P450 2B6 under normoxic culture conditions. Cells were seeded at 4000 cells/well in 48-well plates and treated with increasing concentrations of TPZ for 4 days. Cell growth in comparison to drug-free controls was determined by crystal violet staining and is presented as mean±SD for n=3 replicates.
FIG. 22 is a graph depicting the cytotoxicity of increasing concentrations of TPZ under hypoxic conditions (1% O2) toward 9L tumor cells transduced with retroviruses encoding P450 2B6 and/or human RED. 9L/pBabe cells served as controls. Cells were seeded at 4000 cells/well in 48-well plates and treated with increasing concentrations of TPZ for 4 days. Cell growth in comparison to drug-free controls was determined by crystal violet staining and is presented as mean±SD for n=3 replicates.
FIGS. 24A, 24B and 24C are graphs depicting the cytotoxic effects of TPZ (5 or 10 μM, as indicated) in combination with increasing concentrations of CPA under normoxic culture conditions (19.6% O2, 5% CO2). The data shown were obtained using 9L/2B6/hRED cells (FIG. 24A), 9L/hRED cells (FIG. 24B) and 9L/pBabe (control) cells (FIG. 24C). Data were compared to the cytotoxicity of increasing concentrations of CPA alone (i. e., in the absence of TPZ) measured using the same pools of tumor cells. Cells were seeded at 4000 cells/well in 48-well plates and then treated with the indicated drug concentrations for 4 days. Cell growth in comparison to drug-free controls (i.e., in the absence of CPA and TPZ) was determined by crystal violet staining and is presented as mean±SD for n=3 replicates.
FIGS. 25A, 25B and 25C are graphs depicting the cytotoxic effects of TPZ (0.5 or 1.5 μM, as indicated) in combination with increasing concentrations of CPA under hypoxic culture conditions (1% O2, 5% CO2). The data shown were obtained using 9L/2B6/hRED cells (FIG. 25A), 9L/hRED cells (FIG. 25B) and 9L/pBabe (control) cells (FIG. 25C). Data were compared to the cytotoxicity of increasing concentrations of CPA alone (i.e., in the absence of TPZ) measured using the same pools of tumor cells. Cells were seeded at 4000 cells/well in 48-well plates and then treated with the indicated drug concentrations for 4 days. Cell growth in comparison to drug-free controls (i.e., in the absence of CPA and TPZ) was determined by crystal violet staining and is presented as mean±SD for n=3 replicates.
Cytotoxicity assays: To evaluate the chemosensitivity of the P450- and P450/RED-expressing 9L tumor cells, cells were plated in triplicate at 4000 cells/well of a 48-well plate 18-24 hours prior to drug treatment. Cells were then treated with drugs (0 to 1 mM CPA or 0 to 50 μM TPZ, as indicated in each experiment) and placed in a tissue culture incubator maintained under hypoxic conditions (1% O2, 5% CO2, 94% N2) or under normoxic conditions (19.6% O2, 5% CO2, 75.4% N2) for a period of 4 days. 9L/pBabe cells, which were transduced with the empty retroviral plasmid pBabe-puro (see, Example 2), served as controls. Cells remaining after this time were quantitated using a crystal violet/alcohol-extraction assay, as described under Example 2. Data are presented as cell number relative to drug-free controls, mean±SD values for triplicate samples, unless indicated otherwise.

CYP2C9 = conditions: subset of cancer patients; cited from earlier work
P450 2C9 = conditions: cited from earlier work
9L tumor cells = assay: Control experiment: effect of semicarbazide on cell viability; type: cell-based, rat; conditions: 5 mM, up to 48 hours
9L/pBabe bystander cells = assay: Bystander cytotoxicity/co-culture with cell culture inserts; type: cell-based, rat; conditions: Rattus norvegicus, 96 h, 9L/2B6/reductase, 0.67 mM
Method: FIGS. 18A and 18B are graphs depicting the bystander cytotoxicity of 9L/2B6/reductase and 9L/2B6 cells. In FIG. 18A, bystander cytotoxicity of 9L/2B6/reductase cells is compared to that of 9L/2B6 cells. In both cases, 9L/pBabe served as the bystander cells. 9L/pBabe cells were plated in duplicate at 10^5 cells/well of a 6-well plate (lower chamber). 9L/2B6/reductase cells or 9L/2B6 cells were plated in 25 mm cell culture inserts (upper chamber) at concentrations ranging from 10^4 to 6×10^5 cells, corresponding to ratios of 0.1 to 6 relative to the bystander 9L/pBabe cells growing in the lower chamber, as shown on the x-axis. Cells were incubated in a total volume of 3 ml Dulbecco's minimal essential medium (DMEM), 10% FBS, containing 1 mM CPA, final CPA concentration.
The experimental design was the same as in FIG. 18A, except that the final drug concentration was 0.67 mM. Data shown for both panels correspond to the survival of 9L/pBabe bystander cells in the lower chamber.
Bystander cytotoxicity/co-culture experiments: 9L/pBabe cells were plated in duplicate at 10^5 cells/well in the lower chamber of a 6-well Falcon co-culture plate (30 mm diameter wells) (Falcon 3046). 9L/2B6/reductase cells were plated in 25 mm cell culture inserts (0.4 μm pore size; Falcon 3090), at dilutions ranging from 0. 1 to 6 times the number of 9L/pBabe cells plated in the lower chamber. […] Relative cell numbers were quantitated 4 days later by crystal violet staining.

[5] = in vivo; cited from earlier work
9L/wt cells = assay: Intrinsic chemosensitivity of 9L/wt cells to chemically activated CPA and IFA; type: cell-based, rat
Method: 9L/wt cells seeded at 2000 cells/ well in 48-well plates were treated for 3-4 hours with increasing concentrations of 4-hydroperoxy-CPA or 4-hydroxyperoxy-IFA (0 to 100 μM). Cells were then incubated in fresh drug-free media and allowed to grow for 4 days. Cell growth as a percent of drug-free controls was then determined by crystal violet staining. Data shown are mean±range for duplicate samples.
Briefly, culture dishes were washed once with phosphate buffered saline (PBS), stained for 10 minutes with crystal violet (1.25 g crystal violet (Sigma) dissolved in 500 ml containing 50 ml of 37% formaldehyde and 450 ml methanol), and then washed with PBS, twice for 20 minutes per wash. Absorbance values were measured in an SLT Spectra microtiter plate reader using a 595 nm filter. Background absorbance determined from wells containing culture media alone was subtracted from each value.

human cytochrome P450s = conditions: cited from earlier work
[6] = test system: 9L, 9L/2B1 and 9L/2B1/RED cells; assay: Adriamycin growth inhibition assay; type: cell-based, rat
Method: The indicated 9L, 9L/2B1 and 9L/2B1/RED clonal cell lines, described in Example 1, were treated with Adriamycin for 2 days at the indicated drug concentrations. Cytotoxicity was measured after 5 days continuous culture using a growth inhibition assay, as described under FIG. 2B of Example 1. […] Data shown are averages of duplicates.
as §1
9L gliosarcoma cell lines stably expressing rat P450 2B1 and rat RED: The following rat 9L gliosarcoma transfectants were those already described in Example 1: P3 and P17, which stably express P450 gene CYP2B1; 9L-lacZ, which stably expresses the E. coli β-galactosidase gene; R26, which stably expresses rat RED but not P450; and PR1, PR7, PR11, which stably express rat P450 2B1 and rat RED.

CC(C)(C(=O)c1cccnc1)c1cccnc1 [metyrapone]
blocking of CPA cytotoxicity toward CYP2B1+ cells ([1]; 10 μM and higher, P3 and P17, FIG. 3): significantly blocked the cytotoxic effects
inhibition of CPA cytotoxicity in RED-overexpressing CYP2B1+ cells ([1]; 10 μM, FIG. 3): only slightly inhibited the cytotoxic effect
blocking of CPA cytotoxicity toward CYP2B1+ cells ([2]; 10 μM and higher, P3 and P17): significantly blocked the cytotoxic effects
inhibition of CPA cytotoxicity in RED-overexpressing CYP2B1+ cells ([2]; 10 μM): only slightly inhibited the cytotoxic effect

Nc1n[n+]([O-])c2ccccc2[n+]1[O-] [TPZ, 3-amino-1,2,4-benzotriazine-1,4-di-N-oxide]
effect of TPZ on activity of CPA and other cancer chemotherapeutics ([3]; in vivo): enhance the activity of CPA
bone marrow toxicity with TPZ combination ([3]; with CPA and other chemotherapeutics): corresponding increase in bone marrow toxicity
effect of P450 2B6 and RED on TPZ cytotoxicity [4]: substantial increase in cytotoxicity
effect of P450 2B6 expression alone on TPZ cytotoxicity [4]: no effect on the cytotoxicity
effect of P450 2B6 on TPZ cytotoxicity [4]: Some enhanced cytotoxicity
effect of RED gene transfer on TPZ sensitivity [4]: chemosensitized 9L tumor cells
effect of RED gene transfer, with or without P450 2B6, on TPZ cytotoxicity [4]: increase in TPZ cytotoxicity
intrinsic cytotoxicity under hypoxic vs normoxic conditions [4]: intrinsically more cytotoxic

Nc1ccc(S(=O)(=O)Nc2ccnn2-c2ccccc2)cc1 [sulfaphenazole]
effect on elimination of CPA (CYP2C9): slows the elimination of CPA
inhibition of P450 2C9-catalyzed human liver CPA activation (P450 2C9): inhibits P450 2C9-catalyzed human liver CPA activation

NNC(N)=O [semicarbazide]
effect on cell viability (9L tumor cells): no detectable effect on cell viability

O=P1(NCCCl)OCCCN1CCCl (stereo not shown) [IFA, ifosfamide]
cytotoxicity at 670 µM (9L/pBabe bystander cells; cell ratio 6:1, read-out: maximum bystander cytotoxicity): ~50%
cytotoxicity at 670 µM (9L/pBabe bystander cells; cell ratios up to 3:1, read-out: bystander cytotoxicity): ≤ 25%
side effects of systemic distribution of drug and alkylating metabolites [5]: cardiotoxicity, renal toxicity, marrow suppression, and neurotoxoxicity

Nc1ccc[n+]([C@@H]2O[C@H](COP(=O)([O-])OP(=O)(O)OC[C@H]3O[C@@H](n4cnc5c(N)ncnc54)[C@H](O)[C@@H]3O)[C@@H](O)[C@H]2O)c1 [AADP, 3-aminopyridine adenine dinucleotide]
toxicity to the cells in absence of CPA ([1]; 0.5 mM): no toxicity to the cells
increase of cell survival ratio in CYP2B1+ RED+++ cells [1]: 2-3 fold
rescue of CYP2B1+ and CYP2B1+ RED+++ cells from CPA toxicity [1]: partially rescued

O=P1(N(CCCl)CCCl)NC(OO)CCO1 (stereo not shown) [4-hydroperoxy-CPA]
sensitivity of 9L cells to activated CPA compared to activated IFA (9L/wt cells; 0 to 100 μM, 3-4 h, 4 days regrowth): approximately 3 fold
intrinsic sensitivity of 9L cells to activated CPA compared to activated IFA (9L/wt cells; FIG. 16): greater intrinsic sensitivity

Clc1cnc(Oc2ccc(Oc3ncc(Cl)cc3Cl)cc2)c(Cl)c1 [TCPOBOP, 1,4-bis-2-(3,5-dichloropyridyloxybenzene)]
induction of human cytochrome P450s in colon and breast tumors (human cytochrome P450s): profound inducer

COc1cccc2c1C(=O)c1c(O)c3c(c(O)c1C2=O)C[C@@](O)(C(=O)CO)C[C@@H]3O[C@H]1C[C@H](N)[C@H](O)[C@H](C)O1 [Adriamycin, doxorubicin]
toxicity to 9L and 9L/lacZ cells without P450 metabolism ([6]; 100 nM, 2 days): toxic to 9L cells
effect of co-expression of RED with P450 2B1 on Adriamycin cytotoxicity ([6]; PR11 and PR7): large enhancement in Adriamycin cytotoxicity; also recorded: Enhanced cytotoxicity
chemosensitization to Adriamycin in line PR1 ([6]; RED overexpression approximately 2-fold): more modest chemosensitization
effect of RED overexpression alone on Adriamycin cytotoxicity ([6]; line R26): did not enhance the cytotoxicity

c1ccc2c(c1)[I+]c1ccccc1-2 [DPI, diphenyleneiodonium chloride]
increase of cell survival ratio in CYP2B1+ RED+++ cells [1]: 3-5 fold
rescue of CYP2B1+ and CYP2B1+ RED+++ cells from CPA toxicity [1]: partially rescued
inhibition at 5 µM ([1]; Rattus norvegicus, read-out: growth inhibition in absence of CPA): ~20%
